The values below come from patent US9538759B2, “Chemical compositions and methodology to enhance plant growth and development” (priority 2013, dated 2017).

Common to all, as to assay type: in vivo
For one test, the system named is seeds. Briefly: Classical antioxidants applied to seeds at much higher concentrations.
Another test has as its system seed. Briefly: Replicated field plots comparing two lipoxygenase inhibitors as seed treatments, Safford, Arizona. To be noted: for Germination % / Seedling Ht. (cm) / Surviving Stand %: inhibitor coated at 2.0 g per kg dry seed; for Germination % / Seedling Ht. (cm) / Surviving Stand % / Emergence Coeff.: fungicide co-treatment, mean ± standard error; for Emergence Coeff.: smaller coefficient = faster seedling emergence, 2.0 g per kg dry seed. The source says: The presence of lipoxygenase isoenzymes has always been considered a necessary enzymatic constituent of seed, with the enzyme especially predominant in oil seeds. The detrimental effects of lipoxygenase activity on the viability and storage attributes of seeds have been reported by a number of authors. (Leopold; Parrish; Pfeiffer, et al.: and Hajika, et al.)
Propyl gallate is the inhibitor and antioxidant of choice for inclusion in the improvement of U.S. Pat. No. 4,209,316 described in this application. […] Selected location: Safford, Arizona Experimental Research Station. Each data entry represents the mean of replicated random samples plus or minus the standard error. The smaller the emergence coefficient, the faster the speed of seedling emergence from the soil. All treatments except the first control received a fungicide co-treatment. Lipoxygenase inhibitors were coated on the seed at a rate of 2.0 grams per kilogram of dry seed.

For the next test, the system named is Acala type cottons. Put plainly: Harvested seed cotton weight of container grown cottons, Tucson, Ariz. The source says:
Table three illustrates the comparative advantage of the combination of buffered AMP and propyl gallate liquid formulation applied to two sets of Acala type cottons container grown in Tucson, Ariz. An extended harvest period was possible. Seed cotton was hand picked over several weeks. Bolls with fiber and seed were dried, individually weighed, and treatments were separated and bulked together. Osmocote complete fertilizer was applied twice—at two and four weeks—following the chemical formulation applications.

For the compound `Cc1cc(C(C)(C)C)c(O)c(C(C)(C)C)c1` [butylated hydroxylated toluene], the “enhancement of seed germination and viability traits” value (“enhancement” below) in the test on seeds is reported as “no enhancement”.

As to `Oc1ccc(O)cc1` [Hydroquinone], in the test with seed, the Germination % is reported as 22.9 ± 3.1%, the “Seedling Ht. (cm)” value came out at 16.6 ± 0.4 cm, the “Surviving Stand %” value is listed as 60.6 ± 3.5% and the “Emergence Coeff.” value is 0.50 ± 0.04. Further, the “effectiveness as lipoxygenase inhibitor seed treatment” value with seed (seed treatment with inhibitor alone) is reported as “effective”.

With vitamin E, the “enhancement” value in the test on seeds is listed as “no enhancement”.

For the compound `O=C1O[C@H]([C@@H](O)CO)C(O)=C1O` [ascorbic acid], the “enhancement” value in the test with seeds is recorded as “no enhancement”.

`CCCOC(=O)c1cc(O)c(O)c(O)c1` [Propyl Gallate, propyl gallate]: the “Combined weight of harvested seed cotton per group (in grams)” value with Acala type cottons (group one) turned out to be 640 grams. In addition, in the test on Acala type cottons (group two), the “Combined weight of harvested seed cotton per group (in grams)” value was 423 grams. Further, in the test on seed, the Germination % was determined as 23.0 ± 2.3%, the “Seedling Ht. (cm)” value amounted to 17.3 ± 0.6 cm, the “Surviving Stand %” value stood at 57.8 ± 3.0% and the “Emergence Coeff.” value amounted to 0.52 ± 0.03.
